In ChEMBL document CHEMBL1201862, “PubChem BioAssay data set” (2004):
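1) Cells in 96-well plates. 2) Compound, 48 h, 5 concentrations. 3) Linear interpolation between surrounding doses. 4) Unreached endpoint = highest concentration. GI50 = concentration required for 50% inhibition of growth.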 Calls of active or inactive are those of the source. Rule as the data show it: active = GI50 up to about 1.1 µM and inactive = higher.

Assays:
Experiment in all cases: inhibition of tumour cell growth, NCI panel, 48 h
PC-3 = tested on: PC-3
LXFL 529 = tested on: LXFL 529
U-251 = tested on: U-251
DMS-114 = tested on: DMS-114
OVCAR-8 = tested on: OVCAR-8
RXF 393 = tested on: RXF 393
HCC 2998 = tested on: HCC 2998
DLD-1 = tested on: DLD-1
OVCAR-5 = tested on: OVCAR-5
A498 = tested on: A498
MDA-MB-435 = tested on: MDA-MB-435
UACC-62 = tested on: UACC-62
SF-295 = tested on: SF-295
NCI-H23 = tested on: NCI-H23
SNB-75 = tested on: SNB-75
HOP-18 = tested on: HOP-18
MOLT-4 = tested on: MOLT-4
EKVX = tested on: EKVX
OVCAR-4 = tested on: OVCAR-4
HCT-15 = tested on: HCT-15
SK-OV-3 = tested on: SK-OV-3
M19-MEL = tested on: M19-MEL
SK-MEL-28 = tested on: SK-MEL-28
SNB-78 = tested on: SNB-78
COLO 205 = tested on: COLO 205
BT-549 = tested on: BT-549
DMS-273 = tested on: DMS-273
NCI-H226 = tested on: NCI-H226
SW-620 = tested on: SW-620
XF498 = tested on: XF498
NCI-H522 = tested on: NCI-H522
RPMI-8226 = tested on: RPMI-8226
UACC-257 = tested on: UACC-257
SF-539 = tested on: SF-539
M14 = tested on: M14
Hs-578T = tested on: Hs-578T
HOP-62 = tested on: HOP-62
KM-20L2 = tested on: KM-20L2
NCI-H460 = tested on: NCI-H460
NCI/ADR-RES = tested on: NCI/ADR-RES
MCF7 = tested on: MCF7
KM12 = tested on: KM12
DU-145 = tested on: DU-145
OVCAR-3 = tested on: OVCAR-3
MDA-N = tested on: MDA-N
A549 = tested on: A549
MDA-MB-231 = tested on: MDA-MB-231
LOX IMVI = tested on: LOX IMVI
HCT-116 = tested on: HCT-116
HL-60 = tested on: HL-60
SK-MEL-2 = tested on: SK-MEL-2
SNB-19 = tested on: SNB-19
K562 = tested on: K562
CCRF-CEM = tested on: CCRF-CEM
786-0 = tested on: 786-0
SN12C = tested on: SN12C
UO-31 = tested on: UO-31
HT-29 = tested on: HT-29
SR = tested on: SR
SF-268 = tested on: SF-268
Malme-3M = tested on: Malme-3M
IGROV-1 = tested on: IGROV-1
ACHN = tested on: ACHN
CAKI-1 = tested on: CAKI-1
RXF 631 = tested on: RXF 631
HOP-92 = tested on: HOP-92
SK-MEL-5 = tested on: SK-MEL-5
TK-10 = tested on: TK-10

`CN[C@@H]1C[C@H]2O[C@@](C)([C@@H]1OC)n1c3ccccc3c3c4c(c5c6ccccc6n2c5c31)C(=O)N[C@@H]4O` was tested, and the GI50 (PC-3) was 9.04 nM (active), the GI50 (LXFL 529) was 119 nM (active) and the GI50 (U-251) was 45.6 nM (active). The GI50 (DMS-114) was 104 nM (active), the GI50 (OVCAR-8) was 66.8 nM (active) and the GI50 (RXF 393) was < 11.6 nM (active). The GI50 (HCC 2998) was 149 nM (active), the GI50 (DLD-1) was 149 nM (active) and the GI50 (OVCAR-5) was 15 nM (active). For the same molecule, the GI50 (A498) was < 12.9 nM (active), the GI50 (MDA-MB-435) was 84.5 nM (active) and the GI50 (UACC-62) was 28.2 nM (active). For the same molecule, the GI50 (SF-295) was 24.1 nM (active), the GI50 (NCI-H23) was 33.8 nM (active) and the GI50 (SNB-75) was < 12.1 nM (active). The GI50 (HOP-18) was 10 nM (active), the GI50 (MOLT-4) was 25.9 nM (active) and the GI50 (EKVX) was 18.3 nM (active). The GI50 (OVCAR-4) was 52.6 nM (active), the GI50 (HCT-15) was 209 nM and the GI50 (SK-OV-3) was 26.7 nM (active). For the same molecule, the GI50 (M19-MEL) was 135 nM (active), the GI50 (SK-MEL-28) was 55.1 nM (active) and the GI50 (SNB-78) was 34.4 nM (active). For the same molecule, the GI50 (COLO 205) was 56.9 nM (active), the GI50 (BT-549) was 108 nM (active) and the GI50 (DMS-273) was 35.2 nM (active). The GI50 (NCI-H226) was 19.4 nM (active), the GI50 (SW-620) was 76.4 nM (active) and the GI50 (XF498) was 35.6 nM (active). The GI50 (NCI-H522) was 48.4 nM (active), the GI50 (RPMI-8226) was 658 nM (active) and the GI50 (UACC-257) was 60.3 nM (active). For the same molecule, the GI50 (SF-539) was < 15.1 nM (active), the GI50 (M14) was 25.5 nM (active) and the GI50 (Hs-578T) was 4.54 nM (active). For the same molecule, the GI50 (HOP-62) was < 13.4 nM (active), the GI50 (KM-20L2) was 104 nM (active) and the GI50 (NCI-H460) was 40 nM (active). For the same molecule, the GI50 (NCI/ADR-RES) was 39.5 nM (active), the GI50 (MCF7) was 21.2 nM (active) and the GI50 (KM12) was 32.8 nM (active). For the same molecule, the GI50 (DU-145) was 25.4 nM (active), the GI50 (OVCAR-3) was 43 nM (active) and the GI50 (MDA-N) was 57.4 nM (active). For the same molecule, the GI50 (A549) was 27.8 nM (active), the GI50 (MDA-MB-231) was 13.7 nM (active) and the GI50 (LOX IMVI) was 33.1 nM (active). The GI50 (HCT-116) was 144 nM (active), the GI50 (HL-60) was 87.7 nM (active) and the GI50 (SK-MEL-2) was 14.5 nM (active). For the same molecule, the GI50 (SNB-19) was 120 nM (active), the GI50 (K562) was 310 nM (active) and the GI50 (CCRF-CEM) was 16.5 nM (active). The GI50 (786-0) was 26.6 nM (active), the GI50 (SN12C) was 20.8 nM (active) and the GI50 (UO-31) was < 15.1 nM (active). The GI50 (HT-29) was 125 nM (active), the GI50 (SR) was 13.2 nM (active) and the GI50 (SF-268) was 40.8 nM (active). The GI50 (Malme-3M) was 17.5 nM (active).
In the case of `Fc1cccc(C2SCc3nc4ccccc4n32)c1` (stereo not given), the GI50 (LXFL 529) is reported as 25200 nM (inactive), the GI50 (DMS-114) is reported as 26300 nM (inactive) and the GI50 (OVCAR-8) is reported as 66500 nM (inactive). The GI50 (RXF 393) was > 10000 nM (inactive), the GI50 (HCC 2998) was 55700 nM (inactive) and the GI50 (DLD-1) was 43800 nM (inactive). The GI50 (OVCAR-5) was 17300 nM (inactive), the GI50 (IGROV-1) was 39600 nM (inactive) and the GI50 (UACC-62) was 40100 nM (inactive). For the same molecule, the GI50 (SF-295) was 48300 nM (inactive), the GI50 (NCI-H23) was 19600 nM (inactive) and the GI50 (SNB-75) was 36400 nM (inactive). For the same molecule, the GI50 (MOLT-4) was 33800 nM (inactive), the GI50 (ACHN) was 24400 nM (inactive) and the GI50 (EKVX) was 32400 nM (inactive). The GI50 (CAKI-1) was 25700 nM (inactive), the GI50 (RXF 631) was 32700 nM (inactive) and the GI50 (SK-OV-3) was 50800 nM (inactive). For the same molecule, the GI50 (M19-MEL) was 51400 nM (inactive), the GI50 (SK-MEL-28) was > 10000 nM (inactive) and the GI50 (HOP-92) was 12500 nM (inactive). For the same molecule, the GI50 (SNB-78) was 30600 nM (inactive), the GI50 (COLO 205) was 71400 nM (inactive) and the GI50 (DMS-273) was 26600 nM (inactive). The GI50 (NCI-H226) was 41100 nM (inactive), the GI50 (SW-620) was 54800 nM (inactive) and the GI50 (SK-MEL-5) was 12700 nM (inactive). The GI50 (NCI-H522) was 20200 nM (inactive), the GI50 (RPMI-8226) was 23500 nM (inactive) and the GI50 (UACC-257) was 17600 nM (inactive). For the same molecule, the GI50 (SF-539) was > 100000 nM (inactive), the GI50 (NCI-H460) was 39600 nM (inactive) and the GI50 (KM12) was 39100 nM (inactive). For the same molecule, the GI50 (OVCAR-3) was 36200 nM (inactive), the GI50 (A549) was 43100 nM (inactive) and the GI50 (HCT-116) was 45900 nM (inactive). The GI50 (HL-60) was 11000 nM (inactive), the GI50 (SK-MEL-2) was 42300 nM (inactive) and the GI50 (SNB-19) was 75500 nM (inactive). For the same molecule, the GI50 (K562) was 28500 nM (inactive), the GI50 (CCRF-CEM) was 41200 nM (inactive) and the GI50 (786-0) was > 100000 nM (inactive). For the same molecule, the GI50 (SN12C) was 50500 nM (inactive), the GI50 (UO-31) was 33800 nM (inactive) and the GI50 (TK-10) was > 10000 nM (inactive). For the same molecule, the GI50 (HT-29) was 68700 nM (inactive), the GI50 (SR) was 35600 nM (inactive) and the GI50 (SF-268) was 75300 nM (inactive). For the same molecule, the GI50 (Malme-3M) was 36400 nM (inactive).
